Read-outs that look alike come from different tables or passages of the source.
Key:
[1] = tested on: human ovarian cancer (SKOV-3); assay: MTT cytotoxicity assay, SKOV-3; format: cell-based
[2] = tested on: murine colon cancer (CT-26); assay: MTT cytotoxicity assay, CT-26; format: cell-based; details: read-out: IC50 CT-26 (48 h)
[3] = tested on: human lung cancer (A549); assay: MTT cytotoxicity assay, A549; format: cell-based; details: read-out: IC50 A549 (48 h)
[4] = tested on: cisplatin-resistant cell line A549R; assay: MTT cytotoxicity assay, A549R; format: cell-based, human; details: for RF (resistant factor): RF=IC50(A549R)/IC50(A549); for IC50: read-out: IC50 A549R (48 h)
[5] = tested on: human normal liver cell line LO-2; assay: MTT cytotoxicity assay, normal cell LO-2; format: cell-based; details: for IC50: read-out: IC50 LO-2 (48 h)
[6] = tested on: CT-26 homograft tumors; assay: In vivo antitumor assay, CT-26 homograft; design: species or system BALB/c mice; details: days 6, 9, 12, 14, day 15, saline 1586
[7] = Toxicity in vivo; design: species or system BALB/c mice; details: 4 mg Pt/kg (1-NPs, oxaliplatin i.v.; 1 i.p.)
[8] = Serum AST, ALT, BUN and CRE detection; format: in vivo, BALB/c mice; details: 4 mg Pt/kg (1-NPs, oxaliplatin i.v.; 1 i.p.), vs saline
[9] = tested on: iNOS; assay: Immunohistochemical detection of iNOS in tumor tissues; format: in vivo, BALB/c mice; details: 4 mg Pt/kg (1-NPs, oxaliplatin i.v.), immunohistochemistry
[10] = tested on: MMP-9; assay: Immunohistochemical detection of MMP-9 in tumor tissues; format: in vivo, BALB/c mice; details: 4 mg Pt/kg (1-NPs, oxaliplatin i.v.; 1 i.p.), immunohistochemistry; saline 16.3±1.9
[11] = target: T1, rhCOX-2 (Homo sapiens, UniProt P35354); assay: biochemical; details: read-out: COX-2 inhibition
T1 sequence (P35354 18-604): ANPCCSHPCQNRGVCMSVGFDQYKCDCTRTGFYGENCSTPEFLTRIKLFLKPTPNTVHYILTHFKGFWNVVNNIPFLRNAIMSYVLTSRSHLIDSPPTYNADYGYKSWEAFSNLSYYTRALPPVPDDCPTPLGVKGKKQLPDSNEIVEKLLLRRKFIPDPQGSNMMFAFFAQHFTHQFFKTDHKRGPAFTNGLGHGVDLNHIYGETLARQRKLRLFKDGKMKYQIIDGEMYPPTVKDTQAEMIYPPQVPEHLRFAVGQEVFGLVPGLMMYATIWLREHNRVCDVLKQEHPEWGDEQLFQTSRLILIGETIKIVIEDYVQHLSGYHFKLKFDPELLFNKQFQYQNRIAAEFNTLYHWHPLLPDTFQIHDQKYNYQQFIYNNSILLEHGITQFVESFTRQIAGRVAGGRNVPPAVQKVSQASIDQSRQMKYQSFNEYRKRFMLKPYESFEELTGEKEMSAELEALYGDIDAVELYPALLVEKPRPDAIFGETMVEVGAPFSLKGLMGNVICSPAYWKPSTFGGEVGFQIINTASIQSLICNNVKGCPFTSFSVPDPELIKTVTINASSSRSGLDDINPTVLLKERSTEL

[12] = read-out: IC50 SKOV-3 (48 h), 48 h incubation
[13] = read-out: IC50 SKOV-3 (72 h), 72 h incubation
[14] = MTT, 48 h incubation, normal liver cell

O=C1[O][Pt]2([NH][C@@H]3CCCC[C@H]3[NH]2)[O]C1=O [oxaliplatin]
IC50 [1, 12]: 5.9 ± 1.3 µM | IC50 [1, 13]: 7.5 ± 1.8 µM | IC50 ([2]; MTT, 48 h incubation): 4.1 ± 0.7 µM | IC50 ([3]; MTT, 48 h incubation): 6.7 ± 1.8 µM | RF (resistant factor) [4]: 0.4 | IC50 ([4]; MTT, 48 h incubation): 2.4 ± 0.6 µM | SI (selectivity index) ([5]; SI = IC50(LO-2)/Average IC50): 1.0 | IC50 [5, 14]: 4.8 ± 0.7 µM | tumor volume ([6]; 4 mg Pt/kg (1-NPs, oxaliplatin i.v.; 1 i.p.)): 477 mm^3 | signs of toxicity during treatment [7]: anorexia and dyskinesia | H&E histology of heart, liver, spleen, lung and kidney ([7]; vs saline): no appreciable histological differences | spleen weight index ([7]; vs saline): remarkable suppressions of spleen | ALT and AST levels in serum [8]: significant enhanced ALT and AST levels | expression of iNOS in tumor tissues [9]: significantly upregulates iNOS | expression of MMP-9, mean optical density [10]: 6.5±0.5%

COc1ccc2cc([C@H](C)C(=O)O)ccc2c1 [naproxen]
IC50 ([2]; Mus musculus, CT26, 48 h): > 100 µM | IC50 ([3]; Homo sapiens, A549, 48 h): > 100 µM | IC50 ([4]; Homo sapiens, 48 h): > 100 µM | IC50 ([5]; Homo sapiens, 48 h): > 100 µM | inhibition at 40 µM [11]: 74%

N.N.[Cl][Pt][Cl] [cisplatin]
IC50 [1, 12]: 1.9 ± 0.4 µM | IC50 [1, 13]: 1.2 ± 0.3 µM | IC50 ([2]; MTT, 48 h incubation): 1.2 ± 0.3 µM | IC50 ([3]; MTT, 48 h incubation): 2.8 ± 0.6 µM | RF (resistant factor) [4]: 2.57 | RF (resistant factor) ([4]; listed as CDDP): 2.6 | IC50 ([4]; MTT, 48 h incubation): 7.1 ± 1.3 µM | IC50 [5, 14]: 3.4 ± 1.2 µM | tumor volume ([6]; 2 mg Pt/kg (2-NPs, cisplatin i.v.; 2 i.p.)): 399 mm^3

From PMC8375242 (International Journal of Nanomedicine, 2021)
